Results reported in patent publication US11325937B2, “Glycoside compound and preparation method therefor, composition, application, and intermediate” (SHANGHAI HUTCHISON PHARMACEUTICALS LIMITED, priority 2018, dated 2022).
Like-named read-outs stand apart in the source and are kept apart here.

Test system: VEGF-A mRNA expression in macrophages (RAW264.7)
Experiment: In vitro macrophage experiment: activity of compounds to promote VEGF-A mRNA expression (RT-qPCR)
Type: cell-based
Conditions: Mus musculus, read-out: Expression level of VEGF-A mRNA
Text: 1.1. Specific steps for activity screening: 1-10×10^6 macrophages (RAW264.7) in logarithmic growth phase were transferred to a cell culture plate. The test compounds (Compounds TG-001, TG-002, TG-003, TG-004, TG-005, TG-006, TG-007, TG-008, TG-009, TG-010, TG-011, TG-012, TG-013, TG-014, TG-015, TG-016, TG-017, TG-018, TG-019, TG-020, TG-021, TG-022, TG-023, TG-024, TG-025, TG-026, TG-027, TG-028, TG-029, TG-030, TG-031, TG-032, TG-033, TG-034, TG-035, TG-036, TG-037, TG-045, TG-039, TG-040 TG-041, TG-042, TG-043, TG-044, TG-045, TG-052, TG-053, TG-054, TG-047, TG-048, TG-046, TG-049, TG-050, TG-051, TG-055 and TG-056) were respectively diluted into various concentrations, and separately added to the cell culture plate containing macrophage. The cells were cultured for 3 h in a complete medium (RPMI 1640 medium:fetal bovine serum:tri-resistance screening agent (i.e. penicillin-streptomycin-gentamicin, Beijing Leagene Biotechnology Co., Ltd.)=89:10:1 based on volume) in a cell incubator at 37° C. and 5% CO2. The cells were lyzed by Trizol (Beijing ComWin Biotech Co., Ltd) to extract RNA, and the RNA concentration was measured using a microvolume nucleic acid and protein analyzer (Nanodrop2000c). The required volume V of RNA was calculated according to the RNA concentration, and the RNA reverse transcription reaction system was prepared according to Table 1. Then RNA reverse transcription (cDNA synthesis) (RT Easy™ I (For first-strand cDNA synthesis) Reverse Transcription Kit, Chengdu ForeGene Biotechnology Co., Ltd.) was carried out according to the conditions described in Table 2. The resulting cDNA was used to prepare a fluorescence quantitative PCR reaction solution according to Table 3. The fluorescence quantitative PCR reaction conditions were set according to Table 4, and the fluorescence quantitative PCR reaction (Real time PCR Easy™-SYBR Green Fluorescence Quantification Kit, Chengdu ForeGene Biotechnology Co., Ltd.) was performed using cDNA from the reverse transcription reaction as a template. The relative expression level 2^−ΔΔCt of the target gene was calculated from the Ct value of each sample with the blank control group as a control and β-Actin as an internal reference.
Based on the maximum level of VEGF-A mRNA expression promoted by a drug at a certain concentration, the activity of the drug was determined. The expression level of VEGF-A mRNA in macrophages was defined as 1 when no drug was added. Using a traditional Chinese medicine injection Salvianolate that is used in the treatment of Cardio-cerebrovascular disease and promotes a maximum level of VEGF-A mRNA expression of 6 in macrophages (the results are shown in Table 5) as a judgment standard, the compound promoting a maximum level of VEGF-A mRNA expression of 4 or more in macrophage was a target compound. That is, when the maximum level of VEGF-A mRNA expression in macrophages promoted by the test compound is over 4-fold higher than the expression level of VEGF-A mRNA in macrophages without the addition of the test compound, the test compound was a preliminary target compound promoting angiogenesis.

[1] = 1 μM, RAW264.7 macrophages, 3 h, relative expression 2^-ΔΔCt, no drug = 1
[2] = 0.1 mM, RAW264.7 macrophages, 3 h, relative expression, no drug = 1
[3] = 0.5 mM, RAW264.7 macrophages, 3 h, relative expression, no drug = 1
[4] = 1 mM, RAW264.7 macrophages, 3 h, relative expression, no drug = 1
[5] = 2 mM, RAW264.7 macrophages, 3 h, relative expression, no drug = 1
[6] = 3 mM, RAW264.7 macrophages, 3 h, relative expression, no drug = 1

Compound	fold induction at 1 µM [1]	fold induction at 100 µM [2]	fold induction at 500 µM [3]	fold induction at 1000 µM [4]	fold induction at 2000 µM [5]	fold induction at 3000 µM [6]	fold induction at 1 µM (RAW264.7, 3 h)	fold induction at 100 µM (RAW264.7, 3 h)	fold induction at 500 µM (RAW264.7, 3 h)	fold induction at 1000 µM (RAW264.7, 3 h)	fold induction at 2000 µM (RAW264.7, 3 h)	fold induction at 3000 µM (RAW264.7, 3 h)
OC[C@H]1O[C@@H](OCCCCc2ccc(Br)cc2)[C@H](O)[C@@H](O)[C@@H]1O [TG-012]	1.99	2.31	3.14	0.5	2.08	4.38						
OC[C@H]1O[C@@H](OCCCCc2ccc(OCc3ccccc3)cc2)[C@H](O)[C@@H](O)[C@@H]1O [TG-013]	1.44	2.51	3.98	3.3	3.23	2.44						
C=CCOc1ccc(CCCCO[C@@H]2O[C@H](CO)[C@@H](O)[C@H](O)[C@H]2O)cc1 [TG-015]	1.58	1.26	2.18	4.3	1.65	1.53						
OC[C@H]1O[C@@H](OCCCCc2ccc(OCC3CCCCC3)cc2)[C@H](O)[C@@H](O)[C@@H]1O [TG-016]	3.09	1	1.34	1.54	2.77	17.1						
OC[C@H]1O[C@@H](OCCCCc2ccc(OCc3cccnc3)cc2)[C@H](O)[C@@H](O)[C@@H]1O [TG-017]	1.54	1.29	2.55	5.9	2.29	2.48						
OC[C@H]1O[C@@H](OCCCCc2ccc(OCC3CCCC3)cc2)[C@H](O)[C@@H](O)[C@@H]1O [TG-018]	0.88	3.62	4.15	5.26	7.24	6.53						
OC[C@H]1O[C@@H](OCCCCc2ccc(OCc3ccncc3)cc2)[C@H](O)[C@@H](O)[C@@H]1O [TG-019]	0.74	0.72	1.03	5.2	7.03	2.92						
OC[C@H]1O[C@@H](OCCCCc2ccc(OCC3CCOCC3)cc2)[C@H](O)[C@@H](O)[C@@H]1O [TG-020]	0.88	0.93	2.8	3.9	2.24	2.56						
OC[C@H]1O[C@@H](OCCCCc2ccc(OCC3CCC3)cc2)[C@H](O)[C@@H](O)[C@@H]1O [TG-021]	0.87	2.69	3.81	4.24	9.2	7.96						
OC[C@H]1O[C@@H](OCCCCc2ccc(OCc3ccccn3)cc2)[C@H](O)[C@@H](O)[C@@H]1O [TG-022]	2.31	0.91	1.43	1.68	1.89	0.66						
OC[C@H]1O[C@@H](OCCCCc2ccc(O)cc2)[C@H](O)[C@@H](O)[C@@H]1O [TG-023]	0.16	0.55	0.71	0.5	0.19	0.71						
CCOc1ccc(CCCCO[C@@H]2O[C@H](CO)[C@@H](O)[C@H](O)[C@H]2O)cc1 [TG-024]	1.82	1.14	1.64	4.86	8.38	4.32						
OC[C@H]1O[C@@H](OCCCCc2ccc(OCC3COC3)cc2)[C@H](O)[C@@H](O)[C@@H]1O [TG-025]	1.62	1.78	1.43	2.15	9.69	2.06						
OC[C@H]1O[C@@H](OCCCCc2ccc(OCc3ccc(C(F)(F)F)cc3)cc2)[C@H](O)[C@@H](O)[C@@H]1O [TG-026]	1.44	6.85	7.92	8.13	7.92	8.16						
OC[C@H]1O[C@@H](OCCCCc2ccc(OCc3cccc(F)c3)cc2)[C@H](O)[C@@H](O)[C@@H]1O [TG-027]	1.66	6.36	3.83	3.93	1.07	0.43						
COc1ccc(CCCCO[C@H]2O[C@@H](CO)[C@H](O)[C@@H](O)[C@@H]2O)cc1 [TG-029]	2.21	1.51	1.02	1.54	2.6	2.3						
COc1ccc(CCCCO[C@@H]2O[C@H](CO)[C@H](O)[C@H](O)[C@H]2O)cc1 [TG-030]	0.43	0.32	0.09	0.19	0.19	0.37						
COc1ccc(OCCCO[C@@H]2O[C@H](CO)[C@@H](O)[C@H](O)[C@H]2O)cc1 [TG-031]							0.2	0.18	0.11	2.57	1.39	0.7
